Test results: ChEMBL document CHEMBL3588842, “Discovery of Selective Small-Molecule Inhibitors for the β-Catenin/T-Cell Factor Protein-Protein Interaction through the Optimization of the Acyl Hydrazone Moiety” (J Med Chem, 2015)
Active and inactive are the calls of the source. The rule behind the calls is not given here.

Key:
SW480 [1] = test: Cytotoxicity against human SW480 cells assessed as inhibition of cell growth after 72 hrs by MTS assay
HCT-116 [2] = test: Cytotoxicity against human HCT116 cells assessed as inhibition of cell growth after 72 hrs by MTS assay
HEK293 = test: Inhibition of interaction of beta-catenin (unknown origin) transfected in Wnt-activated HEK293 cells/Tcf4 assessed as decrease in transactivation of canonical Wnt signaling by TOPflash luciferase reporter assay; conditions: Homo sapiens
HCT-116 [3] = test: cells; conditions: Homo sapiens, HCT-116, 72 h
SW480 [4] = test: cells; conditions: Homo sapiens, SW480, 72 h
[5] = Inhibition of interaction of beta-catenin (unknown origin) transfected in Wnt-activated HEK293 cells/Tcf4 assessed as decrease in transactivation of canonical Wnt signaling by TOPflash luciferase reporter assay; conditions: Homo sapiens
Catenin beta-1 [6] = molecular target: T1, Catenin beta-1 (Homo sapiens, UniProt P35222); test: Inhibition of human wild-type beta-catenin (residues 138-686)/C-terminally fluorescein-labeled human E-cadherin (residues 819-873) interaction by FP competitive inhibition assay
T1 sequence (P35222 whole entry): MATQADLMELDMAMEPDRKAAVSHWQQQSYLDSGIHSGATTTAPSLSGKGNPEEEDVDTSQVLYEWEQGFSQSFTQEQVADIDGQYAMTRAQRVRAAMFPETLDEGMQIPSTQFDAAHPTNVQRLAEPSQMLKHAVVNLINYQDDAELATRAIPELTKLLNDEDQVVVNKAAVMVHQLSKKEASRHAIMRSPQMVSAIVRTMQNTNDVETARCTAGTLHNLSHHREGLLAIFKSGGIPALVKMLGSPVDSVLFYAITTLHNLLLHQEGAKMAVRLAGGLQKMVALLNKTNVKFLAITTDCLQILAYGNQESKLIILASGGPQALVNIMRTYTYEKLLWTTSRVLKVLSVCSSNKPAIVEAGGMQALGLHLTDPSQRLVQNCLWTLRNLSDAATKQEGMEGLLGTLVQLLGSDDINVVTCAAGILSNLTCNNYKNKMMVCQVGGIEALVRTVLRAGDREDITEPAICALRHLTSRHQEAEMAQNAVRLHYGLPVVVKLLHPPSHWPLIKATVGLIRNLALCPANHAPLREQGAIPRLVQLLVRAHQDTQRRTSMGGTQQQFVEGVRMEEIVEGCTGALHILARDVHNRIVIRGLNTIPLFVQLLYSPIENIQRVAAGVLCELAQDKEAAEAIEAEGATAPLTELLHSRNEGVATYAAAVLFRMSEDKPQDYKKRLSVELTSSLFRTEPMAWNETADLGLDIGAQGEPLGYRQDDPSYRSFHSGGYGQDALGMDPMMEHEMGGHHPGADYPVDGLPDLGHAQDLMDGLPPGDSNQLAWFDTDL

Catenin beta-1 [7] = molecular target: T1, Catenin beta-1; test: Inhibition of human wild-type beta-catenin (residues 138-686)/C-terminally fluorescein-labeled human APC-R3 (residues 1477-1519) interaction by FP competitive inhibition assay
Catenin beta-1 [8] = molecular target: T1, Catenin beta-1; test: Inhibition of human wild-type beta-catenin (residues 138-686)/C-terminally fluorescein labeled human wild-type Tcf4 (residues 7-51) interaction after […] by FP competitive inhibition assay
[9] = test system: beta-catenin R469A mutant/Tcf4 (human); test: Inhibition of human beta-catenin R469A mutant interaction with Tcf4 by fluorescence polarization competitive inhibition assay
HT-29 = test: cells; conditions: Homo sapiens, HT-29, 72 h
[10] = Inhibition of beta-catenin/Tcf4 interaction in human SW480 cells assessed as decrease in transactivation of canonical Wnt signaling by TOPflash luciferase reporter assay
SW480 [11] = test: Effect on HPRT mRNA expression in human SW480 cells after 24 hrs by quantitative real-time PCR analysis; format: functional, cell-based
SW480 [12] = test: Decrease in cyclin D1 mRNA expression in human SW480 cells at 2 uM after 24 hrs by quantitative real-time PCR analysis; format: functional; conditions: SW480, 24 h
SW480 [13] = test: Effect on beta-catenin degradation in human SW480 cells assessed as beta-catenin protein expression after 24 hrs by western blot analysis; format: functional, cell-based
SW480 [14] = test: Decrease in AXIN2 mRNA expression in human SW480 cells at 2 uM after 24 hrs by quantitative real-time PCR analysis; format: functional; conditions: SW480, 24 h
SW480 [15] = test: Decrease in c-myc mRNA expression in human SW480 cells at 2 uM after 24 hrs by quantitative real-time PCR analysis; format: functional; conditions: SW480, 24 h

Row | IC50 (HCT-116 [3]) [µM] | IC50 (SW480 [4]) [µM] | IC50 [5] [µM] | Structure (SMILES) | inhibition (SW480 [1]) | inhibition (HCT-116 [2]) | inhibition (HEK293) | other results
1 |  |  |  | O=C(O)CCCn1c2ccccc2c2nc3nonc3nc21 | inactive | inactive | inactive | 
2 | 0.02 | 52 |  | N#CCCn1c2ccccc2c2nc3nonc3nc21 |  |  |  | 
3 |  |  | 39 | O=C(O)c1cc(-c2ccc(Oc3ccc(Cl)cc3)cc2)on1 |  |  |  | 
4 |  |  |  | COc1c(C[C@@H](C)OC(=O)Oc2ccc(O)cc2)c2c3c(C[C@@H](C)OC(=O)c4ccccc4)c(OC)c(=O)c4c(O)cc(OC)c(c5c(OC)cc(O)c(c1=O)c52)c43 [CALPHOSTIN C] |  |  |  | IC50 (Catenin beta-1 [6]): 38 µM; IC50 (Catenin beta-1 [7]): 110 µM; IC50 (Catenin beta-1 [8]): 77 µM
5 |  |  |  | CCOC(=O)CCCn1c2ccccc2c2nc3nonc3nc21 | inactive | inactive | inactive | 
6 |  |  | > 100 | O=C(O)c1cc2nc(-c3ccc4c(c3)OCO4)c(-c3ccc4c(c3)OCO4)nc2cc1O |  |  |  | 
7 |  |  |  | COC(=O)CCn1c2ccccc2c2nc3nonc3nc21 | inactive | inactive | inactive | 
8 |  |  |  | Nc1nonc1NC(=O)Cn1c2ccccc2c2nc3nonc3nc21 | inactive | inactive | inactive | Ki [9]: 42 µM
9 | 22 | 38 | > 100 | O=C(O)c1ccc2nc(-c3ccc(Cl)cc3)c(-c3ccc(Cl)cc3)nc2c1 |  |  |  | IC50 (HT-29): 41 µM
10 | 180 | 240 |  | COc1ccc(/C=C2/SC(=S)N(CCCC(=O)O)C2=O)cc1OC |  |  |  | IC50 [10]: 4 µM; IC50 (HT-29): 290 µM
11 |  |  |  | Nc1nonc1C(=O)N/N=C1/c2ccccc2-c2nc3nonc3nc21 |  |  |  | Activity (SW480 [11]): inactive; inhibition at 2 µM (SW480 [12]): > 50%; Activity (SW480 [13]): inactive; inhibition at 2 µM (SW480 [14]): > 50%; inhibition at 2 µM (SW480 [15]): > 50%
12 | 31 | > 200 | 26 | c1ccc2c(c1)c1nc3nonc3nc1n2CCc1nn[nH]n1 |  |  |  | Activity (SW480 [11]): inactive

Row | Structure (SMILES) | IC50 (HCT-116 [3]) [µM] | IC50 (SW480 [4]) [µM] | IC50 [5] [µM] | inhibition (SW480 [1]) | inhibition (HCT-116 [2]) | inhibition (HEK293) | other results
13 | COc1c(C[C@H](C)O)c2c3c(C[C@H](C)O)c(OC)c(=O)c4c(O)cc5c(c6c(cc(O)c(c1=O)c62)OCO5)c43 | 1.2 | 5.5 |  |  |  |  | IC50 (HT-29): 1.8 µM
